Assay results from patent US20260250325A1, “Antiviral Polypeptide Membrane Fusion Inhibitor, and Preparation Method and Application Thereof” (priority 2025, published 2026).
Where a SMILES comes first, the peptide text is derived from it. The star is where a group is joined. Succinyl(4-O-cholesteryl) = CC(C)CCC[C@@H](C)[C@H]1CC[C@H]2[C@@H]3CC=C4C[C@@H](OC(=O)CCC(=O)*)CC[C@]4(C)[C@H]3CC[C@]12C

Tested on: RSV A long virus strain
Type: cell-based
Details: RSV A long virus strain, HEp-2 cells, plaque reduction, 1 day; read-out: IC50
Procedure, shortened: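 Plaque reduction in HEp-2 cells: virus (100 PFU/well) and serially diluted compound (8 concentrations) mixed 1 h, adsorbed 2 h, then overlaid with 0.8% CMC medium plus compound for 1 day at 37 °C. Spots counted after anti-RSV immunostaining; IC50 from normalized inhibition, CC50 from viability data.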

Q: `CC[C@H](C)[C@H](NC(=O)[C@H](CCCCN)NC(=O)[C@H](CCCCN)NC(=O)[C@H](CC(C)C)NC(=O)[C@H](CO)NC(=O)[C@H](CCC(N)=O)NC(=O)[C@H](CC(N)=O)NC(=O)[C@@H](NC(=O)[C@H](CCCCN)NC(=O)[C@H](CCCCN)NC(=O)[C@H](CC(=O)O)NC(=O)[C@H](Cc1ccccc1)NC(=O)[C@H](CCC(=O)O)NC(=O)[C@@H](NC(=O)[C@H](CCCCN)NC(=O)[C@H](CCCCN)NC(=O)[C@H](CC(N)=O)NC(=O)[C@@H](NC(=O)[C@H](CC(C)C)NC(=O)[C@H](CCC(=O)O)NC(=O)[C@H](CC(=O)O)NC(=O)[C@H](CO)NC(C)=O)C(C)C)[C@@H](C)CC)[C@@H](C)CC)C(=O)N[C@@H](CCC(=O)O)C(=O)N[C@@H](CCC(=O)O)C(=O)N[C@@H](CO)C(=O)N[C@@H](CC(=O)O)C(=O)N[C@@H](CCCCN)C(=O)N[C@@H](CCCCN)C(=O)N[C@@H](CCCCN)C(=O)N[C@@H](CC(C)C)C(=O)N[C@@H](CCC(=O)O)C(=O)N[C@@H](C)C(=O)N[C@@H](C)C(=O)N[C@@H](C)C(=O)N[C@@H](CCCCN)C(=O)N[C@@H](CCCCN)C(N)=O` [Compound 51] (Ac-SDELVNKKIEFDKKINQSLKKIEESDKKKLEAAAKK-NH2) was tested. Which IC50 did it give?
A: 9.9 nM

Q: With `CC[C@H](C)[C@H](NC(=O)[C@H](CO)NC(=O)[C@H](C)NC(=O)[C@H](CC(=O)O)NC(=O)[C@H](Cc1ccccc1)NC(=O)[C@H](CCC(=O)O)NC(=O)[C@H](CC(=O)O)NC(=O)[C@H](Cc1c[nH]c2ccccc12)NC(C)=O)C(=O)N[C@@H](CO)C(=O)N[C@@H](CCC(N)=O)C(=O)N[C@H](C(=O)N[C@@H](CC(N)=O)C(=O)N[C@@H](CCC(=O)O)C(=O)N[C@@H](CCCCN)C(=O)N[C@H](C(=O)N[C@@H](CC(N)=O)C(=O)N[C@@H](CCC(N)=O)C(=O)N[C@@H](CO)C(=O)N[C@@H](CC(C)C)C(=O)N[C@@H](CCC(=O)O)C(=O)N[C@@H](CCC(=O)O)C(=O)N[C@H](C(=O)N[C@@H](CCCNC(=N)N)C(=O)N[C@@H](CCCCN)C(=O)N[C@@H](CO)C(=O)N[C@@H](CC(=O)O)C(=O)N[C@@H](CCC(=O)O)C(=O)N[C@@H](CC(C)C)C(=O)N[C@@H](CC(C)C)C(=O)N[C@@H](Cc1c[nH]cn1)C(=O)N[C@@H](CC(N)=O)C(=O)N[C@@H](CCC(=O)O)C(=O)N[C@@H](C)C(=O)N[C@@H](C)C(=O)N[C@@H](C)C(=O)N[C@@H](CCCCN)C(=O)N[C@@H](CCCCNC(=O)CCC(=O)O[C@H]1CC[C@@]2(C)C(=CC[C@H]3[C@@H]4CC[C@H]([C@H](C)CCCC(C)C)[C@@]4(C)CC[C@@H]32)C1)C(N)=O)[C@@H](C)CC)[C@@H](C)CC)C(C)C` [Compound 45] (Ac-WDEFDASISQVNEKINQSLEEIRKSDELLHNEAAAKK(Succinyl(4-O-cholesteryl))-NH2) as the compound, how does the IC50 read?
A: 12.2 nM

Q: With `CC[C@H](C)[C@H](NC(=O)[C@H](CCCCN)NC(=O)[C@H](CCCCN)NC(=O)[C@H](CC(C)C)NC(=O)[C@H](CO)NC(=O)[C@H](CCC(=O)O)NC(=O)[C@H](CCC(=O)O)NC(=O)[C@@H](NC(=O)[C@H](CCCCN)NC(=O)[C@H](CCCCN)NC(=O)[C@H](CC(N)=O)NC(=O)[C@@H](NC(=O)[C@H](CCC(=O)O)NC(=O)[C@H](CCC(=O)O)NC(=O)[C@@H](NC(=O)[C@H](CCCCN)NC(=O)[C@H](CCCCN)NC(=O)[C@H](CC(=O)O)NC(=O)[C@H](Cc1ccccc1)NC(=O)[C@H](CCC(=O)O)NC(=O)[C@H](CC(=O)O)NC(=O)[C@H](CO)NC(C)=O)[C@@H](C)CC)C(C)C)[C@@H](C)CC)C(=O)N[C@@H](CCC(=O)O)C(=O)N[C@@H](CCC(=O)O)C(=O)N[C@@H](CO)C(=O)N[C@@H](CC(=O)O)C(=O)N[C@@H](CCCCN)C(=O)N[C@@H](CCCCN)C(=O)N[C@@H](CC(C)C)C(=O)N[C@@H](CCC(=O)O)C(=O)N[C@@H](C)C(=O)N[C@@H](C)C(=O)N[C@@H](C)C(=O)N[C@@H](CCCCN)C(=O)N[C@@H](CCCCNC(=O)CCC(=O)O[C@H]1CC[C@@]2(C)C(=CC[C@H]3[C@@H]4CC[C@H]([C@H](C)CCCC(C)C)[C@@]4(C)CC[C@@H]32)C1)C(N)=O` [Compound 16] (Ac-SDEFDKKIEEVNKKIEESLKKIEESDKKLEAAAKK(Succinyl(4-O-cholesteryl))-NH2) as the compound, how does the IC50 read?
A: 10.3 nM

Q: For `CC[C@H](C)[C@H](NC(=O)[C@H](CCCCN)NC(=O)[C@H](CCCCN)NC(=O)[C@H](CC(C)C)NC(=O)[C@H](CO)NC(=O)[C@H](CCC(=O)O)NC(=O)[C@H](CCC(=O)O)NC(=O)[C@@H](NC(=O)[C@H](CCCCN)NC(=O)[C@H](CCCCN)NC(=O)[C@H](CC(N)=O)NC(=O)[C@@H](NC(=O)[C@H](CCC(=O)O)NC(=O)[C@H](CCC(=O)O)NC(=O)[C@@H](NC(=O)[C@H](CCCCN)NC(=O)[C@H](CCCCN)NC(=O)[C@H](CC(=O)O)NC(=O)[C@H](Cc1ccccc1)NC(=O)[C@H](CCC(=O)O)NC(=O)[C@H](CC(=O)O)NC(=O)[C@H](Cc1c[nH]c2ccccc12)NC(C)=O)[C@@H](C)CC)C(C)C)[C@@H](C)CC)C(=O)N[C@@H](CCC(=O)O)C(=O)N[C@@H](CCC(=O)O)C(=O)N[C@@H](CO)C(=O)N[C@@H](CC(=O)O)C(=O)N[C@@H](CCCCN)C(=O)N[C@@H](CCCCN)C(=O)N[C@@H](CC(C)C)C(=O)N[C@@H](CCC(=O)O)C(=O)N[C@@H](CCC(=O)O)C(=O)N[C@H](C(=O)N[C@@H](CC(N)=O)C(=O)N[C@@H](CCC(=O)O)C(=O)N[C@@H](C)C(=O)N[C@@H](C)C(=O)N[C@@H](C)C(=O)N[C@@H](CCCCN)C(=O)N[C@@H](CCCCNC(=O)CCC(=O)O[C@H]1CC[C@@]2(C)C(=CC[C@H]3[C@@H]4CC[C@H]([C@H](C)CCCC(C)C)[C@@]4(C)CC[C@@H]32)C1)C(N)=O)C(C)C` [Compound 41] (Ac-WDEFDKKIEEVNKKIEESLKKIEESDKKLEEVNEAAAKK(Succinyl(4-O-cholesteryl))-NH2), which IC50 is on record?
A: 14.8 nM

Q: For `CC[C@H](C)[C@H](NC(=O)[C@H](CO)NC(=O)[C@H](C)NC(=O)[C@H](CC(=O)O)NC(=O)[C@H](Cc1ccccc1)NC(=O)[C@H](CCC(=O)O)NC(=O)[C@H](CC(=O)O)NC(=O)[C@H](Cc1c[nH]c2ccccc12)NC(C)=O)C(=O)N[C@@H](CCC(=O)O)C(=O)N[C@@H](CCC(=O)O)C(=O)N[C@H](C(=O)N[C@@H](CC(N)=O)C(=O)N[C@@H](CCCNC(=N)N)C(=O)N[C@@H](CCCNC(=N)N)C(=O)N[C@H](C(=O)N[C@@H](CCC(=O)O)C(=O)N[C@@H](CCC(=O)O)C(=O)N[C@@H](CO)C(=O)N[C@@H](CC(C)C)C(=O)N[C@@H](CCCNC(=N)N)C(=O)N[C@@H](CCCNC(=N)N)C(=O)N[C@H](C(=O)N[C@@H](CCC(=O)O)C(=O)N[C@@H](CCC(=O)O)C(=O)N[C@@H](CO)C(=O)N[C@@H](CC(=O)O)C(=O)N[C@@H](CCCNC(=N)N)C(=O)N[C@@H](CCCNC(=N)N)C(=O)N[C@@H](CC(C)C)C(=O)N[C@@H](CCC(=O)O)C(=O)N[C@@H](CCC(=O)O)C(=O)N[C@H](C(=O)N[C@@H](CCC(=O)O)C(=O)N[C@@H](C)C(=O)N[C@@H](C)C(=O)N[C@@H](C)C(=O)N[C@@H](CCCCN)C(=O)N[C@@H](CCCCNC(=O)CCC(=O)O[C@H]1CC[C@@]2(C)C(=CC[C@H]3[C@@H]4CC[C@H]([C@H](C)CCCC(C)C)[C@@]4(C)CC[C@@H]32)C1)C(N)=O)C(C)C)[C@@H](C)CC)[C@@H](C)CC)C(C)C` [Compound 43] (Ac-WDEFDASIEEVNRRIEESLRRIEESDRRLEEVEAAAKK(Succinyl(4-O-cholesteryl))-NH2), which IC50 is on record?
A: 18.3 nM

Q: With “Ac-LVKKIDEFDASISQVNEKINQSLEEIRKSDELLHNVGSGSGK(Succinyl(4-O-cholesteryl))-NH2 [Compound 29]” as the compound, how does the IC50 read?
A: 19.3 nM
